For 23 compounds, IC50 results are on record in patent publication US20160168119A1, “AUTOTAXIN INHIBITORS” (Novartis AG, priority 2013, published 2016).

Structures are written as SMILES. Where two headings read alike, the source gives them in different places.

The IC50 is the concentration at which inhibition is half-maximal.

This test has as its target T1, Recombinant human ATX (Homo sapiens, UniProt Q13822).
T1 construct: made in house; host or cells: human embryonic kidney (HEK) cells
The test is described as follows: ATX inhibition assay (choline release, Amplex Red fluorescence). The class given is biochemical. As for the experimental part:
Reagents—LPC (oleoyl (18:1)) was purchased from Avanti Polar Lipids (Alabaster, Ala.) and solubilized in methanol to 20 mM. Amplex Red was obtained from Invitrogen Life Technologies (Paisley, UK) and dissolved in DMSO to 10 mM. Choline oxidase and horseradish peroxidase (HRP) were obtained from Sigma Aldrich (Dorset, UK) and dissolved in HBSS to 20 U/ml and 200 U/ml respectively. All reagents were stored at −20° C. in single use aliquots. All experimental measurements were performed in assay buffer made up immediately prior to use (HBSS, 0.01% BSA essentially fatty acid free).
PerkinElmer EnVision (Fluorescence Intensity/Absorbance Monochromator) or Tecan Infinite 200 PRO series plate reader was used to detect change in fluorescent intensity.
Assessing ATX inhibition—ATX activity was determined by measurement of released choline in reactions containing ATX (10 nM), choline oxidase (0.1 U/ml), HRP (100 U/ml), amplex red (50 μM) and LPC 18:1 (10 μM). Compounds of the invention were prepared as 10 point serial dilutions from 1 μM in duplicate and pre-incubated with ATX at 37° C. for 20 minutes prior to the addition of remaining reagents. The liberated choline was measured from changes in fluorescence intensity (λex 530 nm, λem 590 nm) of the product resurofin at 37° C. every 2 minutes over a 40-minute period. ATX activity was measured as a slope of the linear portion of the progress curve, typically between 14 to 24 minutes.
Data analysis—Slope data was exported to Graphpad prism (Graphpad software, San Diego, Calif.) where data was fitted to equation 1.
Y=Bottom+(Top−Bottom)/(1+10̂((LogIC50−X)*HillSlope)) Equation 1: […]

Where [1] appears, read: ATX 10 nM, LPC 18:1 10 μM, pre-incubated 20 minutes at 37° C., mean of n≧2, read-out: IC50.

Turning to `Cc1nnn(Cc2cc(Cl)ccc2/C=C/C(=O)N(C)CC2CC(=O)N(C(C)(C)C)C2)n1` (centres unmarked) [Example 2.6, (E)-N-((1-(tert-Butyl)-5-oxopyrrolidin-3-yl)methyl)-3-(4-chloro-2-((5-methyl-2H-tetrazol-2-yl)methyl)phenyl)-N-methylacrylamide], the IC50 under setting [1] came to 52 nM. On the same count and under the same terms, the same measure for `Cc1nnn(Cc2cc(Cl)ccc2/C=C/C(=O)N(C)CC2CCCO2)n1` (centres unmarked) [Example 2.7, (E)-3-(4-Chloro-2-((5-methyl-2H-tetrazol-2-yl)methyl)phenyl)-N-methyl-N-((tetrahydrofuran-2-yl)methyl)acrylamide]: 183 nM; for `Cc1ccc(S(=O)(=O)N2CCC(CN(C)C(=O)/C=C/c3ccc(C(F)(F)F)cc3Cn3nnc(C)n3)CC2)cc1` [Example 4.2, (E)-N-Methyl-3-(2-((5-methyl-2H-tetrazol-2-yl)methy)-4-(trifluoromethyl)phenyl)-N-((1-tosylpiperidin-4-yl)methyl)acrylamide]: 4.5 nM. Same read-out and setting: the same measure for `Cc1nnn(Cc2cc(C(F)(F)F)ccc2/C=C/C(=O)N(C)Cc2nc(-c3ccccc3)no2)n1` [Example 6.9, (E)-N-Methyl-3-(2-((5-methyl-2H-tetrazol-2-yl)methyl)-4-(trifluoromethyl)phenyl)-N-((3-phenyl-1,2,4-oxadiazol-5-yl)methyl)acrylamide]: 5.3 nM; for `CCN(CC(O)c1cccc(O)c1)C(=O)/C=C/c1ccc(Cl)cc1Cn1nnc(C)n1` (centres unmarked) [Example 2.5, (E)-3-(4-Chloro-2-((5-methyl-2H-tetrazol-2-yl)methyl)phenyl)-N-ethyl-N-(2-hydroxy-2-(3-hydroxyphenyl)ethyl)acrylamide]: 94 nM; for `Cc1nnn(Cc2cc(C(F)(F)F)ccc2/C=C/C(=O)N(C)Cc2nc(-c3ccccc3)cs2)n1` [Example 6.7, (E)-N-Methyl-3-(2-((5-methyl-2H-tetrazol-2-yl)methyl)-4-(trifluoromethyl)phenyl)-N-((4-phenylthiazol-2-yl)methyl)acrylamide]: 6 nM. Same read-out and setting: the same measure for `Cc1nnn(Cc2cc(C(F)(F)F)ccc2/C=C/C(=O)N(C)Cc2nnc(-c3ccccc3)o2)n1` [Example 6.4, (E)-N-Methyl-3-(2-((5-methyl-2H-tetrazol-2-yl)methyl)-4-(trifluoromethyl)phenyl)-N-((5-phenyl-1,3,4-oxadiazol-2-yl)methyl)acrylamide]: 13 nM. On to `Cc1nnn(Cc2cc(Cl)ccc2/C=C/C(=O)N(C)CC2CCN(C(=O)OC(C)(C)C)CC2)n1` [Example 1.1, (E)-tert-Butyl 4-((3-(4-chloro-2-((5-methyl-2H-tetrazol-2-yl)methyl)phenyl)-N-methylacrylamido)methyl)piperidine-1-carboxylate], for which, under setting [1], the IC50 is 14 nM.

With `Cc1nnn(Cc2cc(C(F)(F)F)ccc2/C=C/C(=O)N(C)Cc2nc3ccccc3s2)n1` [Example 6.10, (E)-N-(Benzo[d]thiazol-2-ylmethyl)-N-methyl-3-(2-((5-methyl-2H-tetrazol-2-yl)methyl)-4-(trifluoromethyl)phenyl)acrylamide], under setting [1], the IC50 is 12 nM. Same read-out and setting: the value for `Cc1cc(CN(C)C(=O)/C=C/c2ccc(Cl)cc2Cn2nnc(C)n2)on1` [Example 2.3, (E)-3-(4-Chloro-2-((5-methyl-2H-tetrazol-2-yl)methyl)phenyl)-N-methyl-N-((3-methylisoxazol-5-yl)methyl)acrylamide] was 73 nM. Consider `Cc1cc(CN(C)C(=O)/C=C/c2ccc(C(F)(F)F)cc2Cn2nnc(C)n2)n(C)n1` [Example 6.1, (E)-N-((1,3-Dimethyl-1H-pyrazol-5-yl)methyl)-N-methyl-3-(2-((5-methyl-2H-tetrazol-2-yl)methyl)-4-(trifluoromethyl)phenyl)acrylamide], for which the IC50 under setting [1] is 6.9 nM.

For the compound `CCN(CCOC)C(=O)/C=C/c1ccc(Cl)cc1Cn1nnc(C)n1` [Example 2.4, (E)-3-(4-Chloro-2-((5-methyl-2H-tetrazol-2-yl)methyl)phenyl)-N-ethyl-N-(2-methoxyethyl)acrylamide], under setting [1], the IC50 is 50 nM.

For the compound `COc1ccc(CNC(=O)CN(C)C(=O)/C=C/c2ccc(C(F)(F)F)cc2Cn2nnc(C)n2)cc1` [Example 6.5, (E)-N-(2-((4-Methoxybenzyl)amino)-2-oxoethyl)-N-methyl-3-(2-((5-methyl-2H-tetrazol-2-yl)methyl)-4-(trifluoromethyl)phenyl)acrylamide], the half-inhibitory concentration (IC50) under setting [1] was determined as 16 nM. The same measure, in the same setting: the same measure for `CCN(C(=O)/C=C/c1ccc(C(F)(F)F)cc1Cn1nnc(C)n1)C1CCN(C(=O)OC(C)(C)C)CC1` [Example 1.2, (E)-tert-Butyl-4-(N-ethyl-3-(2-((5-methyl-2H-tetrazol-2-yl)methyl)-4-(trifluoromethyl)phenyl)acrylamido)piperidine-1-carboxylate]: 20 nM; for `Cc1nnn(Cc2cc(C(F)(F)F)ccc2/C=C/C(=O)N(C)CC2CCN(C(=O)c3ccc(F)cc3)CC2)n1` [Example 3, (E)-N-((1-(4-Fluorobenzoyl)piperidin-4-yl)methyl)-N-methyl-3-(2-((5-methyl-2H-tetrazol-2-yl)methyl)-4-(trifluoromethyl)phenyl)acrylamide]: 10 nM. As to `Cc1nnn(Cc2cc(C(F)(F)F)ccc2/C=C/C(=O)N(C)CC2CCN(S(=O)(=O)C3CC3)CC2)n1` [Example 4.1, (E)-N-((1-(Cyclopropylsulfonyl)piperidin-4-yl)methyl)-N-methyl-3-(2-((5-methyl-2H-tetrazol-2-yl)methyl)-4-(trifluoromethyl)phenyl)acrylamide], the half-maximal inhibitory concentration (IC50) under setting [1] worked out at 4.9 nM.

`Cc1csc(CN(C)C(=O)/C=C/c2ccc(C(F)(F)F)cc2Cn2nnc(C)n2)n1` [Example 6.3, (E)-N-Methyl-3-(2-((5-methyl-2H-tetrazol-2-yl)methyl)-4-(trifluoromethyl)phenyl)-N-((4-methylthiazol-2-yl)methyl)acrylamide]: under setting [1], the IC50 amounted to 40 nM. On to `Cc1nnn(Cc2cc(C(F)(F)F)ccc2/C=C/C(=O)N(C)CCOc2ccccc2)n1` [Example 6.2, (E)-N-Methyl-3-(2-((5-methyl-2H-tetrazol-2-yl)methyl)-4-(trifluoromethyl)phenyl)-N-(2-phenoxyethyl)acrylamide], for which the concentration for half-maximal inhibition (IC50) came out at 9 nM. `Cc1nnn(Cc2cc(C(F)(F)F)ccc2/C=C/C(=O)N(C)CC2CCN(Cc3ccc(F)cc3)CC2)n1` [Example 5, (E)-N-((1-(4-Fluorobenzyl)piperidin-4-yl)methyl)-N-methyl-3-(2-((5-methyl-2H-tetrazol-2-yl)methyl)-4-(trifluoromethyl)phenyl)acrylamide]: under setting [1], the IC50 was 13 nM. On the same count and under the same terms, the value for `Cc1nnn(Cc2cc(C(F)(F)F)ccc2/C=C/C(=O)N(C)CCCCc2cccnc2)n1` [Example 6.6, (E)-N-Methyl-3-(2-((5-methyl-2H-tetrazol-2-yl)methyl)-4-(trifluoromethyl)phenyl)-N-(4-(pyridin-3-yl)butyl)acrylamide] was 49 nM. Still for that read-out and setting: the value for `Cc1nnn(Cc2cc(C(F)(F)F)ccc2/C=C/C(=O)N(C)CC2CC(=O)N(C(C)(C)C)C2)n1` (centres unmarked) [Example 6.8, (E)-N-((1-(tert-Butyl)-5-oxopyrrolidin-3-yl)methyl)-N-methyl-3-(2-((5-methyl-2H-tetrazol-2-yl)methyl)-4-(trifluoromethyl)phenyl)acrylamide] was 7 nM. Take `Cc1csc(CN(C)C(=O)/C=C/c2ccc(Cl)cc2Cn2nnc(C)n2)n1` [Example 2.2, (E)-3-(4-Chloro-2-((5-methyl-2H-tetrazol-2-yl)methyl)phenyl)-N-methyl-N-((4-methylthiazol-2-yl)methyl)acrylamide]: the IC50 under setting [1] was determined as 74 nM.

For `CCN(Cc1ccncc1)C(=O)/C=C/c1ccc(Cl)cc1Cn1nnc(C)n1` [Example 2.1, (E)-3-(4-Chloro-2-((5-methyl-2H-tetrazol-2-yl)methyl)phenyl)-N-ethyl-N-(pyridin-4-ylmethyl)acrylamide], the concentration for half-maximal inhibition (IC50) under setting [1] came out at 64 nM.
